For assay [1], the system named is histamine aerosol induced bronchoconstriction. The assay is described as follows: Bronchodilator Activity (protection of conscious guinea pigs against histamine aerosol). It is filed as in vivo. The following applies: for inhibition in vivo at 60 mg/kg: Cavia porcellus, 1 h, read-out: % Protection. As for the experimental part:
Subsequent to this administration, each animal is challenged with histamine aerosol. […] Immediately after the container is subjected to the histamine spray the animal is placed within it. At the end of one minute of exposure, the respiratory status, which is a reflection of bronchoconstriction, is evaluated. Evaluation levels are designated and scored as normal breathing (0), slight deepened breathing (1), labored breathing (2), severely labored breathing and […] (3) and unconsciousness (4). Each group of animals contains 8 to 10 individual and a control group containing the same approximate number is used. […] The dose, which is given orally, is 60 mg./kg. and the animals are challenged with histamine 60 minutes later.

Assay [2] has as its system collagen induced platelet aggregation. The experiment in a line: In Vitro Inhibition of Platelet Aggregation (collagen induced, rabbit platelet-rich plasma). It is filed as cell-based. The note with it: Oryctolagus cuniculus, 10 min; for inhibition at 600 µM: 6 × 10^^-4 mol./l.; for inhibition at 60 µM: 6 × 10^^-5 mol./l.; for inhibition at 6 µM: 6 × 10^^-6 mol./l. How it is done: The ability of the compounds of the present invention to inhibit platelet aggregation in vitro is measured according to the method of Born, et al., J. Physiol., 168, 178 (1963) and comprises the following procedure: Anesthetized male rabbits are bled from a carotid artery into plastic centrifuge tubes containing 0.1 volume 3% sodium citrate. Platelet-rich plasma is separated by centrifugation at 100 G for 10 minutes at 20° C. […] After 10 minutes of incubation with the platelet-rich plasma at room temperature, collagen, a protein known to cause platelet aggregation, is added (0.27 ml. collagen/4 ml. plasma) and changes in the optical density are followed with a Spectronic 20 colorimeter attached to a Houston Instrument TY Recorder. Platelet aggregation is indicated by a decrease in optical density. The relative potency of the compounds of the present invention are thus rated on their ability to inhibit (percent) collagen induced platelet aggregation.

Assay [3] shares this test system. The assay is described as follows: In Vivo Inhibition of Platelet Aggregation (collagen induced aggregation in plasma of dosed dogs). The following applies: for Inhibition to Collagen, High: high collagen (1:20 dilution); for Inhibition to Collagen, Low: low collagen (1:40-50 dilution). More on the design: species or system mongrel dogs. As for the experimental part: The capacity of the compounds of the present invention to inhibit platelet aggregation in a modified in vivo test is measured by the following procedure: Unanesthetized fasted adult mongrel dogs of either sex are dosed orally (P.O.) or intravenously (I.V.) with the particular test compound. Blood samples are taken at hourly intervals and placed in plastic centrifuge tubes containing 0.1 volume 3% sodium citrate. Platelet-rich plasma is separated by centrifugation at 100 G for 10 minutes at 20° C. and treated with a collagen suspension in saline. The effect of two different levels of collagen concentration are examined; the first is a 1:20 dilution, i.e. 1 ml. of collagen suspension per 20 ml. of platelet-rich plasma (high dose), and the second, a 1:40-50 dilution (low dose). Changes in optical density are then followed with a Spectronic 20 colorimeter attached to a Houston Instrument TY Recorder. Platelet aggregation is indicated by a decrease in optical density. […] Measurements are carried out on the hourly samples, allowing for the determination of a duration of the initial effect.

Where [4] appears, read: 60 mg./kg. oral, histamine challenge 60 minutes later.

Where a name gives a salt, the structure may show the parent alone. Read-outs that look alike come from different tables or passages of the source.

A word on the inhibition: it is the change of the read-out against control, counted positive when it falls. Lower therefore signals a weak effect. For `CCC(=O)Nc1cccc(-c2cc(N(CC)CC)ncn2)c1` [4-diethylamino-6-(m-propionylaminophenyl)pyrimidine], the inhibition in vivo at 60 mg/kg in assay [1] (setting [4]) was 30%. In addition, in assay [2], testing at 600 µM gave an inhibition of 99%, the inhibition at 60 µM amounted to 82% and the inhibition at 6 µM worked out at 13%.
In the case of `Cc1c(O)ncnc1-c1ccccc1` [R3=CH3], the inhibition in vivo at 60 mg/kg in assay [1] (setting [4]) was 22%.
As for `Oc1cc(-c2ccccc2)ncn1` [R3=H, 4-Hydroxy-6-phenylpyrimidine], in assay [1] (po), the inhibition in vivo at 60 mg/kg was determined as 12%.
Turning to `CCc1c(O)ncnc1-c1ccccc1` [R3=C2H5, 4-hydroxy-5-ethyl-6-phenylpyrimidine], the inhibition in vivo at 60 mg/kg in assay [1] (setting [4]) is 62%. The “activity as a bronchodilator (in words)” value in assay [1] (guinea pig, in vivo) is recorded as “unexpected, outstanding activity as a bronchodilator”.
For the compound `CCN(CC)c1cc(-c2ccco2)ncn1` [Ar=2-furyl; R1=C2H5; R2=C2H5; R3=H, 4-Diethylamino-6-(2-furyl)pyrimidine hydrochloride], the inhibition in vivo at 60 mg/kg in assay [1] (setting [4]) was 15%.
With `CCc1c(-c2ccc3ccccc3c2)ncnc1N(CC)CC` [Ar=2-naphthyl; R1=C2H5; R2=C2H5; R3=C2H5, 4-Diethylamino-5-ethyl-6-(2-naphthyl)pyrimidine hydrochloride], the inhibition in vivo at 60 mg/kg in assay [1] (po) was found to be 47%.
Turning to `CCCN(CCC)c1ncnc(-c2cccc(NC(C)=O)c2)c1C`, the inhibition in vivo at 60 mg/kg in assay [1] (setting [4]) was 17%.
As for `CCN(CC)c1cc(-c2ccc(NC(C)=O)cc2)ncn1` [Ar=4-CH3CONHC6H4; R1=C2H5; R2=C2H5; R3=H, 4-diethylamino-6-(p-acetylaminophenyl)pyrimidine], the inhibition in vivo at 60 mg/kg in assay [1] (po) turned out to be 56%.
The same measure, in the same setting: to `Cn1c(=O)c2[nH]cnc2n(C)c1=O` [theophylline, reference compound] belongs 25%.
Regarding `Cl.FC(F)(F)CNc1cc(-c2ccccc2)ncn1` [Ar=C6H5; R1=CF3CH2; R2=H; R3=H, 4-(2,2,2-Trifluoroethylamino)-6-phenylpyrimidine hydrochloride], in assay [3] (10 mg./kg. I.V.), the Duration came out at 3 h and the “Inhibition to Collagen, High” value is listed as “Complete (complete (95-100%))”. Besides, in assay [3] (25 mg./kg. P.O.), the Duration turned out to be 3 h and the “Inhibition to Collagen, High” value is on record as “Partial (partial (15-95%))”. For the same compound, in assay [3] (35 mg./kg. P.O.), the Duration was found to be 4 h; the “Inhibition to Collagen, High” value is reported as “Complete (complete (95-100%))”; the “Inhibition to Collagen, Low” value is listed as “Complete (complete (95-100%))”. In assay [2], this compound displayed an inhibition at 60 µM of 83% and an inhibition at 6 µM of 32%.
In the case of `CCCc1c(-c2cccc(NC(C)=O)c2)ncnc1N(CC)CC`, in assay [1] (po), the inhibition in vivo at 60 mg/kg worked out at 29%.
As for `CCN(CC)c1cc(-c2cccc([N+](=O)[O-])c2)ncn1` [Ar=3-NO2C6H4; R1=C2H5; R2=C2H5; R3=H, 4-Diethylamino-6-(m-nitrophenyl)pyrimidine hydrochloride], the inhibition in vivo at 60 mg/kg in assay [1] (setting [4]) is 20%. For the same compound, in assay [2], the inhibition at 600 µM came to 99%, at 60 µM the inhibition was 93% and the inhibition at 6 µM amounted to 25%.
`CCCc1c(O)ncnc1-c1ccccc1` [R3=n-C3H7]: in assay [1] (setting [4]), the inhibition in vivo at 60 mg/kg came to 25%.
Consider `CCN(CC)c1ncnc(-c2cccc(NC(C)=O)c2)c1C`, for which the inhibition in vivo at 60 mg/kg in assay [1] (setting [4]) was determined as 43%.
Consider `CCc1c(-c2cccc(NC(C)=O)c2)ncnc1N(C)C`, for which the inhibition in vivo at 60 mg/kg in assay [1] (setting [4]) is 10%.
As to `CC(C)c1c(O)ncnc1-c1ccccc1` [R3=i-C3H7], in assay [1] (po), the inhibition in vivo at 60 mg/kg is 16%.
With `CCc1c(-c2cccc(NC(C)=O)c2)ncnc1N(CC)CC`, the inhibition in vivo at 60 mg/kg in assay [1] (setting [4]) was 35%.
`CCCN(CCC)c1cc(-c2cccc(NC(C)=O)c2)ncn1` [4-di-n-propylamino-6-(m-acetylaminophenyl)-pyrimidine]: in assay [1] (setting [4]), the inhibition in vivo at 60 mg/kg amounted to 30%. In assay [2], this compound yielded an inhibition at 600 µM of 88%, an inhibition at 60 µM of 29% and an inhibition at 6 µM of 22%.
As to `CCN(CC)c1cc(-c2cccc(NS(C)(=O)=O)c2)ncn1`, in assay [1] (setting [4]), the inhibition in vivo at 60 mg/kg came to 19%. In assay [2], this compound came in with an inhibition at 600 µM of 95%, an inhibition at 60 µM of 21% and an inhibition at 6 µM of 9%.
Turning to `CCN(CC)c1cc(-c2cccc(NC(=O)C(C)C)c2)ncn1` [4-diethylamino-6-(m-isobutrylaminophenyl)pyrimidine], the inhibition in vivo at 60 mg/kg in assay [1] (po) was 22%.
With `COc1ccc(-c2cc(N(C)C)ncn2)cc1` [Ar=4-CH3OC6H4; R1=CH3; R2=CH3; R3=H], in assay [2], the inhibition at 600 µM came to 89%, 60 µM produced 88% inhibition and at 6 µM the inhibition was 48%.
Turning to `CCCCN(CCCC)c1cc(-c2ccccc2)ncn1` [Ar=C6H5; R1=n-C4H9; R2=n-C4H9; R3=H], in assay [2], 60 µM produced 56% inhibition and the inhibition at 6 µM stood at 35%.
In assay [2], `CCCN(C)c1cc(-c2ccccc2)ncn1` [Ar=C6H5; R1=n-C3H7; R2=CH3; R3=H] had an inhibition at 60 µM of 47% and an inhibition at 6 µM of 39%.
Regarding `Nc1cccc(-c2cc(N3CCCC3)ncn2)c1` [Ar=3-NH2C6H4; R1,R2=--(CH2)4--; R3=H], testing at 600 µM in assay [2] gave an inhibition of 11%.
With `CCN(CCO)c1cc(-c2ccccc2)ncn1.Cl` [Ar=C6H5; R1=HO(CH2)2; R2=C2H5; R3=H, 4-[Ethyl(2-hydroxyethyl)amino]-6-phenylpyrimidine hydrochloride], in assay [3] (10 mg./kg. I.V.), the Duration is 3 h; the “Inhibition to Collagen, High” value is listed as “Complete (complete (95-100%))”; the “Inhibition to Collagen, Low” value is “Complete (complete (95-100%))”. Also, in assay [3] (25 mg./kg. P.O.), the Duration amounted to 2 h; the “Inhibition to Collagen, High” value was “Complete (complete (95-100%))”; the “Inhibition to Collagen, Low” value is listed as “Complete (complete (95-100%))”. For the same compound, in assay [2], at 600 µM the inhibition was 99%, the inhibition at 60 µM worked out at 97% and the inhibition at 6 µM came to 35%.
Regarding `CN(Cc1cccnc1)c1cc(-c2ccccc2)ncn1` [Ar=C6H5; R1=3-picolyl; R2=CH3; R3=H, 4-[Methyl(3-pyridylmethyl)amino]-6-phenylpyrimidine dihydrochloride], in assay [2], the inhibition at 600 µM is 99% and the inhibition at 60 µM stood at 17%.
`CCN(CC(F)(F)F)c1cc(-c2ccccc2)ncn1` [Ar=C6H5; R1=CF3CH2; R2=C2H5; R3=H, 4-[Ethyl(2,2,2-trifluoroethyl)amino]-6-phenylpyrimidine hydrochloride]: in assay [2], testing at 600 µM gave an inhibition of 65%, 60 µM produced 39% inhibition and the inhibition at 6 µM was 34%.
Taken in the same sequence, the figures for `c1ccc(-c2cc(NCc3cccnc3)ncn2)cc1` [Ar=C6H5; R1=3-picolyl; R2=H; R3=H, 4-(3-Pyridylmethylamino)-6-phenylpyrimidine dihydrochloride] were 98%, 31% and 12%.
With `CCN(CC)c1cc(-c2ccc(OC)cc2)ncn1` [Ar=4-CH3OC6H4; R1=C2H5; R2=C2H5; R3=H, 4-diethylamino-6-(p-methoxyphenyl)pyrimidine], in assay [3] (10 mg./kg. I.V.), the “Inhibition to Collagen, High” value is on record as “None (none (0-15%))” and the “Inhibition to Collagen, Low” value was “None (none (0-15%))”. In addition, in assay [3] (40 mg./kg. P.O.), the “Inhibition to Collagen, High” value is recorded as “Partial (partial (15-95%))” and the “Inhibition to Collagen, Low” value was “Complete (complete (95-100%))”. The compound further showed a Duration in assay [3] (40 mg./kg. P.O., line with high collagen result) of 1 h. Besides, the Duration in assay [3] (40 mg./kg. P.O., line with low collagen result) was determined as 4 h. In assay [2], this compound came in with an inhibition at 60 µM of 86% and an inhibition at 6 µM of 42%.
In assay [2], `CCNc1cc(-c2ccc(OC)cc2)ncn1` [Ar=4-CH3OC6H4; R1=H; R2=C2H5; R3=H] had an inhibition at 600 µM of 92%, an inhibition at 60 µM of 64% and an inhibition at 6 µM of 24%.
Regarding `CCCN(CC)c1cc(-c2ccccc2)ncn1` [Ar=C6H5; R1=n-C3H7; R2=C2H5; R3=H, 4-(ethyl-n-propylamino)-6-phenylpyrimidine], in assay [2], the inhibition at 600 µM was 99%, testing at 60 µM gave an inhibition of 86% and the inhibition at 6 µM is 79%.

The values above are taken from US3950525A, “Relaxation of smooth muscle in a mammal” (Pfizer Inc., priority 1975, dated 1976).
